Among the test systems are Acinetobacter baumannii; Klebsiella pneumoniae; Pseudomonas aeruginosa; Candida albicans; Candida glabrata; Escherichia coli ML-35; Candida krusei ATCC 6258.
Common to all, as to assay: ≥ marks a high value that may be exact or a test limit, other limits are often not marked, values filed in µg/mL are converted to µM
Assay [1] deals with Pseudomonas aeruginosa H1001.
Assay [2] relates to Escherichia coli ATCC 8739.
Assay [3] deals with Cryptococcus neoformans ATCC 208821.
The subject of assay [4] is Staphylococcus aureus ATCC 43300.
In assay [5] the test system is Pseudomonas aeruginosa ATCC 27853.
Assay [6] has as its system Klebsiella pneumoniae ATCC 700603.
The subject of assay [7] is Klebsiella pneumoniae ATCC 13883.
For assay [8], the system named is Acinetobacter baumannii ATCC 19606.
For assay [9], the system named is Klebsiella pneumoniae ATCC BAA-2146.
The subject of assay [10] is Bacillus subtilis ATCC 6051.
For assay [11], the system named is Candida albicans ATCC 90028.
Assay [12] concerns Escherichia coli ATCC 25922.
For assay [13], the system named is Klebsiella pneumoniae KCTC 2208.
Assay [14] concerns Acinetobacter baumannii KCTC 2508.
In assay [15] the test system is Candida tropicalis ATCC 750.
Assay [16] relates to Candida albicans ATCC 14053.
Assay [17] relates to Pseudomonas aeruginosa ATCC 15422.
The test system of assay [18] is Staphylococcus aureus ATCC 6538.
For assay [19], the system named is Staphylococcus aureus ATCC 29213.
The test system of assay [20] is Bacillus subtilis ATCC 23857.
The subject of assay [21] is Bacillus subtilis CCT 2576.
For assay [22], the system named is Escherichia coli ATCC 43827.
The test system of assay [23] is Staphylococcus epidermidis ATCC 12228.
Assay [24] has as its system Cronobacter sakazakii ATCC 29544.
For assay [25], the system named is Candida glabrata ATCC 2001.
Assay [26] relates to Staphylococcus aureus ATCC 25923.

Converted amounts (≈) assume the structure as drawn. “And” between values parts separate entries of the source, which are not always exact repeats. Identical values can stand only once. Some results are limits rather than exact numbers.

A word on the MIC: it is the lowest concentration found to suppress growth. A high value points to a less susceptible organism. Take `CC[C@H](C)[C@H](NC(=O)[C@H](C)NC(=O)[C@H](CC(N)=O)NC(=O)[C@H](CCSC)NC(=O)[C@@H]1CCCN1)C(=O)N[C@@H](CCCCN)C(=O)N[C@@H](CC(C)C)C(=O)N[C@@H](CC(C)C)C(=O)N[C@@H](CS)C(=O)N[C@@H](CCCN=C(N)N)C(=O)N[C@H](C(=O)N[C@@H](Cc1cnc[nH]1)C(=O)N[C@@H](CCCCN)C(=O)N[C@@H](CCCCN)C(=O)N[C@H](C(=O)N[C@@H](C)C(=O)N[C@H](C(=O)N[C@@H](CO)C(=O)N[C@H](C(=O)O)C(C)C)[C@@H](C)CC)[C@@H](C)CC)C(C)C` [PMNAIKLLCRVHKKIAISV]: the MIC in assay [1] is 5.86 µM (≈ 12.5 µg/mL); in assay [2], at least 60 µM.

With `CC[C@H](C)[C@@H]1NC(=O)CNC(=O)[C@H](CCCN=C(N)N)NC(=O)[C@H](C)NC(=O)[C@@H]2CSSC[C@H](NC1=O)C(=O)N[C@@H](Cc1ccc(O)cc1)C(=O)N[C@@H](CCCN=C(N)N)C(=O)N[C@@H](CCCN=C(N)N)C(=O)N[C@H](C(=O)N[C@@H](CCCN=C(N)N)C(=O)O)CSSC[C@H](NC(=O)[C@H](Cc1c[nH]c3ccccc13)NC(=O)[C@@H](N)CCCCN)C(=O)N[C@@H](Cc1ccccc1)C(=O)N[C@@H](CCCN=C(N)N)C(=O)N[C@@H](C(C)C)C(=O)N2` [KWCFRVCARGICYRRCR], the MIC came out at 0.23 µM (≈ 0.499 µg/mL) in assay [3]; 1.84 µM (≈ 3.99 µg/mL) in [4]; 0.23 µM (≈ 0.499 µg/mL) against Acinetobacter baumannii; 0.459 µM (≈ 0.998 µg/mL) in [5]; 0.0574 µM (≈ 0.125 µg/mL) in [6]; 3.68 µM (≈ 7.99 µg/mL) with Klebsiella pneumoniae. Besides, the minimal inhibitory concentration (MIC) is 0.0574 µM (≈ 0.125 µg/mL) in assay [7]; 0.0574 µM (≈ 0.125 µg/mL) in assay [8]; 0.23 µM (≈ 0.499 µg/mL) in assay [9]; 0.115 µM (≈ 0.25 µg/mL) in [10]; 3.68 µM (≈ 7.99 µg/mL) in assay [11]; 0.919 µM (≈ 2 µg/mL) in the assay on Pseudomonas aeruginosa. In addition, in assay [12], the MIC is 0.0276 µM (≈ 0.06 µg/mL).

With `CC(C)[C@@H]1NC(=O)[C@H](CCCN=C(N)N)NC(=O)[C@H](Cc2ccccc2)NC(=O)[C@@H](NC(=O)[C@H](Cc2c[nH]c3ccccc23)NC(=O)[C@@H](N)CCCCN)CSSC[C@@H](C(=O)N[C@@H](CCCN=C(N)N)C(=O)O)NC(=O)[C@H](CCCN=C(N)N)NC(=O)[C@H](CCCN=C(N)N)NC(=O)[C@H](Cc2ccc(O)cc2)NC(=O)[C@@H]2CSSC[C@H](NC1=O)C(=O)N[C@@H](Cc1ccc(O)cc1)C(=O)N[C@@H](CCCN=C(N)N)C(=O)NCC(=O)N[C@@H](C)C(=O)N2` [KWCFRVCYRGACYRRCR], the minimum inhibitory concentration (MIC) in [3] stood at 0.225 µM (≈ 0.499 µg/mL); in assay [4], 0.898 µM (≈ 2 µg/mL); with Acinetobacter baumannii it was 0.112 µM (≈ 0.25 µg/mL); in assay [5], 0.112 µM (≈ 0.25 µg/mL); in [6], 0.225 µM (≈ 0.499 µg/mL); against Klebsiella pneumoniae, 3.59 µM (≈ 7.99 µg/mL). For the same molecule, the minimum inhibitory concentration (MIC) in [7] was determined as 0.112 µM (≈ 0.25 µg/mL); in [8], 0.112 µM (≈ 0.25 µg/mL); in assay [9], 0.112 µM (≈ 0.25 µg/mL); in [10] it was 0.0561 µM (≈ 0.125 µg/mL); in [11], 0.898 µM (≈ 2 µg/mL); with Pseudomonas aeruginosa it was 0.449 µM (≈ 0.998 µg/mL). In [12], this molecule registered a minimal inhibitory concentration (MIC) of 0.0561 µM (≈ 0.125 µg/mL).

On to `CC[C@H](C)[C@H](N)C(=O)N[C@@H](C)C(=O)N[C@@H](CCCN=C(N)N)C(=O)N[C@@H](CCCN=C(N)N)C(=O)N[C@@H](C)C(=O)N[C@@H](CC(C)C)C(=O)N[C@@H](CCCCN)C(=O)N[C@@H](CCCCN)C(=O)N[C@@H](C)C(=O)N[C@@H](CCCCN)C(=O)N[C@@H](CCCN=C(N)N)C(=O)N[C@@H](C)C(=O)N[C@@H](C)C(=O)N[C@@H](Cc1cnc[nH]1)C(=O)N[C@@H](CCCCN)C(=O)N[C@H](C(=O)N1CCC[C@H]1C(=O)N[C@@H](C)C(=O)N[C@@H](CS)C(=O)N[C@@H](CCCCN)C(=O)N[C@@H](CCCCN)C(=O)N[C@@H](Cc1ccccc1)C(=O)NCC(=O)N[C@@H](CCCN=C(N)N)C(=O)N[C@@H](CCCN=C(N)N)C(N)=O)[C@@H](C)CC` [IARRALKKAKRAAHKIPACKKFGRR], for which the results for the MIC in assay [13], in assay [5] and in assay [14] were 8 µM (≈ 23 µg/mL), 2 µM (≈ 5.75 µg/mL) and 16 µM (≈ 46 µg/mL), respectively.

Consider `CC[C@H](C)[C@H](N)C(=O)N[C@@H](C)C(=O)N[C@@H](CCCN=C(N)N)C(=O)N[C@@H](CCCN=C(N)N)C(=O)N[C@@H](C)C(=O)N[C@@H](CC(C)C)C(=O)N[C@@H](CCCCN)C(=O)N[C@@H](CCCCN)C(=O)N[C@@H](C)C(=O)N[C@@H](CCCCN)C(=O)N[C@@H](CCCN=C(N)N)C(=O)N[C@@H](C)C(=O)N[C@@H](C)C(=O)N[C@@H](Cc1cnc[nH]1)C(=O)N[C@@H](CCCCN)C(=O)N[C@H](C(=O)N1CCC[C@H]1C(=O)N[C@@H](C)C(=O)N[C@@H](C)C(=O)N[C@@H](CCCCN)C(=O)N[C@@H](CCCCN)C(=O)N[C@@H](Cc1ccccc1)C(=O)NCC(=O)N[C@@H](CCCN=C(N)N)C(=O)N[C@@H](CCCN=C(N)N)C(N)=O)[C@@H](C)CC` [IARRALKKAKRAAHKIPAAKKFGRR], for which the MIC in assay [13] is 2 µM (≈ 5.69 µg/mL); in assay [5], 16 µM (≈ 45.5 µg/mL); in assay [14], 8 µM (≈ 22.7 µg/mL).

On to `CC[C@H](C)[C@H](N)C(=O)N[C@@H](CC(C)C)C(=O)NCC(=O)N[C@H](C(=O)N[C@H](C(=O)N[C@@H](CC(C)C)C(=O)NCC(=O)N[C@@H](CC(C)C)C(=O)N[C@@H](CC(C)C)C(=O)N[C@@H](CCCCN)C(=O)N[C@@H](CO)C(=O)N[C@@H](CC(C)C)C(N)=O)[C@@H](C)CC)[C@@H](C)O` [ILGTILGLLKSL], for which the MIC in assay [15] is 4 µM (≈ 4.96 µg/mL); in [16], 16 µM (≈ 19.8 µg/mL); in assay [17], at least 202 µM; with Candida albicans, 22.6 µM (≈ 28 µg/mL); in [18], 12.1 µM (≈ 15 µg/mL); against Candida glabrata, 16 µM (≈ 19.8 µg/mL). Moreover, the MIC in assay [19] is 4 µM (≈ 4.96 µg/mL); in assay [20] it was 4 µM (≈ 4.96 µg/mL); in [6] it was 128 µM (≈ 159 µg/mL); in assay [21], 12.1 µM (≈ 15 µg/mL); in [22], at least 32 µM; in assay [23], 8 µM and > 4 µM. Also, the minimum inhibitory concentration (MIC) against Escherichia coli ML-35 is at least 64 µM; in assay [24], at least 64 µM; in assay [25], 16 µM (≈ 19.8 µg/mL); in [26] it was 8 µM (≈ 9.92 µg/mL); in [12], 32 µM (≈ 39.7 µg/mL); with Candida krusei ATCC 6258 it was at least 32 µM.

The molecule `CC(C)C[C@H](NC(=O)[C@H](Cc1ccc(O)cc1)NC(=O)[C@@H]1CCCN1C(=O)[C@@H]1CCCN1C(=O)[C@H](CCCCN)NC(=O)[C@H](CC(=O)O)NC(=O)[C@@H](N)C(C)C)C(=O)N1CCC[C@H]1C(=O)N[C@@H](CCCN=C(N)N)C(=O)N1CCC[C@H]1C(=O)N[C@@H](CCCN=C(N)N)C(=O)N1CCC[C@H]1C(=O)N1CCC[C@H]1C(=O)N[C@@H](CCCN=C(N)N)C(=O)N[C@@H](CCCN=C(N)N)C(=O)N[C@@H](Cc1ccccc1)C(=O)N[C@@H](Cc1ccc(O)cc1)C(=O)N[C@@H](CC(N)=O)C(=O)N[C@@H](CCCN=C(N)N)C(=O)NCC(=O)O` [VDKPPYLPRPRPPRRFYNRG] showed an MIC in [1] of 0.105 µM (≈ 0.26 µg/mL).

The record behind these values is DBAASP.
